Experimental data reported in article PMC9944328 (Nature Communications, 2023).
Read-outs that look alike come from different tables or passages of the source.

What was measured:
[1] = system: SSTR2; assay: β-arrestin recruitment with co-transfection of GRK2; type: cell-based, human; conditions: N276(6.55)A and F294(7.35)A with GRK2 co-transfection
Procedure: In addition, we measured the function of the residues located in the core region and the common ligand binding pocket.
Human full-length β-arrestin 1 was cloned into pcDNA3.1+ vector with the large fragment (LgBiT) of the NanoBiT system and a 15-amino acid flexible linker ([sequence]) at the N-terminus. Human full-length SSTR wild-type and mutant vectors were C-terminally fused with a 15-amino acid flexible linker and the small fragment (SmBiT). HEK293 cells were seeded into six-well microplates at a density of 1.0 × 10^6 cells/well and cultured for 24 h at 37 °C with 5% CO2. After that, cells were co-transfected with pcDNA3.1+ vectors encoding SSTR wild-type or mutants and human β-arrestin 1. After transfecting for 24 h, the transfected cells were suspended and seeded into white 96-well plates, and then cultured at 37 °C overnight. After that the medium in each well was exchanged for 90 μl of 0.01% bovine serum albumin containing 20 μl of 50 μM coelenterazine h (Carbosynth) diluted in the HBSS assay buffer and incubated for 40 min at room temperature. Then, ligands diluted in the assay buffer was added to each well and the luminescence intensity was measured using the Synergy H1 microplate reader and detected at room temperature in a time period. All data presented are means of at least three independent experiments.

[2] = target: T1, SSTR2 mutants (Homo sapiens, UniProt P30874, N276A); assay: Bystander BRET endosomal trafficking (β-arrestin 1-Nluc, FYVE-mVenus), HEK293 (SSTR2 mutants); conditions: best-fit value;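 further: Read-out is the BRET ratio between Nluc-fused β-arrestin 1 and the early endosome marker FYVE-mVenus, measured after ligand addition with coelenterazine h as substrate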;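 on Bottom: percent of maximal wild-type response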
T1 sequence (P30874 whole entry N276A, the tested form may be a part): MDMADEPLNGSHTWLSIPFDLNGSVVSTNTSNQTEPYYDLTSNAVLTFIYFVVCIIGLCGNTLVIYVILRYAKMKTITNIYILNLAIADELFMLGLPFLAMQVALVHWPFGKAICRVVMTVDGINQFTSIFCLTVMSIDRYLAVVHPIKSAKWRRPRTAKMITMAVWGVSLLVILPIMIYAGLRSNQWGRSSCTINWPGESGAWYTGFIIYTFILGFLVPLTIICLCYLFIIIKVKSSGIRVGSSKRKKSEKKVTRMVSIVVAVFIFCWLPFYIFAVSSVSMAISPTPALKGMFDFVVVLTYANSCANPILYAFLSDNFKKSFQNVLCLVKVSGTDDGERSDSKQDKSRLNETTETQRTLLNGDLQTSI
Procedure: (§1) Wild-type or mutant SSTR2, β-arrestin 1-Nluc and FYVE-mVenus were co-transfected in HEK293 cells at a ratio of 1:0.5:4 on six-well plates. The next day, the transfected cells were plated on white 96-well and incubated overnight, and then cells were incubated with 90 µL HBSS containing 20 mM HEPES and coelenterazine h (5 µM) at room temperature for 40 min. After incubation, ligand was added and the signal was measured using the Synergy H1 microplate reader (BioTek) to determine a BRET ratio.

[3] = target: SSTR2 mutants (Homo sapiens, UniProt P30874, F294A); assay: as above; conditions: for Bottom: best-fit value
Chain of SSTR2 mutants (Homo sapiens, UniProt P30874, F294A) (P30874 whole entry F294A): as the sequence (P30874 whole entry N276A, the tested form may be a part) above, with A276N, F294A counted along it
Procedure: as §1

[4] = target: T2, SSTR3 (Homo sapiens, UniProt P32745); assay: SSTRs Gi-mediated cAMP inhibition, GloSensor, HEK293 (SSTR3 wild-type); type: cell-based; design: Bottom / Top / Span / Top (best-fit): unit not given here
T2 construct: The human full-length SSTRs and mutants were cloned into the pcDNA3.1+ vector; expressed in transfected cells; host or cells: HEK293 (ATCC, CRL-1573)
T2 sequence (P32745 whole entry): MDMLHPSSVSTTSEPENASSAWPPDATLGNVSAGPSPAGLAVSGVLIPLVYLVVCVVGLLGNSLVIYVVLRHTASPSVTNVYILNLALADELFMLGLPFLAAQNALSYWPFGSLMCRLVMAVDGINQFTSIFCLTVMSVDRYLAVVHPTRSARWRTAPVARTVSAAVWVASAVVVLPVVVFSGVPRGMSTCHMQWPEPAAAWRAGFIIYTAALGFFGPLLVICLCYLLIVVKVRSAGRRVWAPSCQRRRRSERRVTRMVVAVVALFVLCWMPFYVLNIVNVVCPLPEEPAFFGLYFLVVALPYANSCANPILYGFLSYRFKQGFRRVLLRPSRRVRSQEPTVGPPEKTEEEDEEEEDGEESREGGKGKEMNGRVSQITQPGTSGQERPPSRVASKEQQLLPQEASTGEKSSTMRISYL
Procedure: The levels of the intracellular 3′, 5′-cyclic AMP (cAMP) were measured by the GloSensor cAMP assay (Promega) as described in the previous studies[28],[41] which has been widely used. The human full-length SSTRs and mutants were cloned into the pcDNA3.1+ vector with a HA signal sequence followed by a Flag tag at the N-terminus. […] Cells were then co-transfected with SSTR wild-type or mutants and GloSensor plasmids. After 24 h of transfection, the cells were dissociated with TrypLE™ Express Enzyme (1X) (Thermo Fisher Scientific) and collected by centrifugation at 500 × g for 5 min. Then the collected cells were suspended in Hank’s balanced salt solution [HBSS (Thermo Fisher Scientific)] supplemented with […] potassium salt solution (YEASEN), and then the suspension cells were seeded into 96-well plates with 90 μl/well. After incubating at room temperature for 40 min, 5 μM forskolin and ligands diluted in HBSS were added to each well and the plates were incubated at room temperature for 15 min. […] signals were measured using the Synergy H1 microplate reader (BioTek) and the data presented are means of at least three independent experiments.

[5] = target: T1, SSTR2 mutants
Procedure: as §1

[6] = target: SSTR2 (Homo sapiens, UniProt P30874); assay: Bystander BRET endosomal trafficking (β-arrestin 1-Nluc, FYVE-mVenus), HEK293 (SSTR2 wild-type); type: cell-based; design: The human full-length SSTRs and mutants were cloned into the pcDNA3.1+ vector; expressed in transfected cells; host or cells: HEK293; conditions: for Bottom / LogEC50 / Span / Top: best-fit value;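 on all read-outs here: HEK293 cells coexpressing Nluc-tagged β-arrestin 1 and mVenus-fused FYVE endosomal marker, bystander BRET ratio read after ligand addition, coelenterazine h substrate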
Chain of SSTR2 (Homo sapiens, UniProt P30874) (P30874 whole entry, the tested form may be a part): as the sequence (P30874 whole entry N276A, the tested form may be a part) above, with A276N counted along it
Procedure: as §1

[7] = system: SSTR2 mutants; assay: SSTR2 internalization by ELISA, HEK293, 30 min 37 °C (mutants); type: cell-based, human; conditions: I284ECL3A, K291A, N276A, F294A, Bystander BRET or confocal
Procedure: HEK293 cells were seeded into 96-well microplates at a density of 4 × 10^4 cells/well and cultured for 24 h at 37 °C with 5% CO2 and were transfected using the same procedure as the cAMP accumulation assay. The plates were washed with washing buffer (PBS) the day after transfection, and were fixed with 4% formalin at room temperature for 30 min. Cells were washed with washing buffer and blocked with PBS supplemented with 5% BSA for 1 h at room temperature. After that, cells were incubated with anti-Flag antibody (1:1000 diluted with PBS containing 5% BSA, Proteintech: 66008-4-Ig) for 1 h at room temperature. After 1 h incubation, cells were washed with washing buffer and incubating with HRP-conjugated secondary antibody for 2 h at room temperature. After incubating and washing, 50 μl of chromogenic solution was added to each well, and reacted at room temperature for 10 min, and then 0.5 M HCl were added to stop the reaction.
All data presented are means at least three independent experiments.

[8] = best-fit, SSTR3 WT-1 (F296D set)
[9] = best-fit, SSTR3 WT-1 (H192T set)
[10] = best-fit, SSTR3 WT-1 (M193I set)
[11] = best-fit, SSTR3 WT-1 (N101V set)
[12] = best-fit, SSTR3 WT-2 (F296D set)
[13] = best-fit, SSTR3 WT-2 (H192T set)
[14] = best-fit, SSTR3 WT-2 (M193I set)
[15] = best-fit, SSTR3 WT-2 (N101V set)
[16] = best-fit, SSTR3 WT-3 (F296D set)
[17] = best-fit, SSTR3 WT-3 (M193I set)
[18] = best-fit, SSTR3 WT-3 (N101V set)
[19] = WT-1 (F265A, I284A, K291A blocks)
[20] = WT-2 (F265A, I284A, K291A blocks)
[21] = WT-2 of N276A block = WT-3 of F294A block
[22] = WT-3 (F265A, I284A, K291A blocks)
[23] = WT-3 of N276A block = WT-2 of F294A block

Question: What does the source list for N#Cc1cccc(-c2ccc3ncc(-c4cc(F)cc(F)c4)c(N4CCC(N)CC4)c3c2)c1O [paltusotine]?
Answer: β-arrestin recruitment with GRK2 [1]: influenced paltusotine induced β-arrestin recruitment; Bottom ([2]; N276A-1 (run 1)): 0.05559; Bottom ([2]; N276A-2 (run 2)): -0.1543; Bottom ([2]; N276A-3 (run 3)): -2.441; EC50 [3]: 2094 ± 1.18 nM; Emax ([3]; HEK293): 95.1 ± 4.53%; Bottom ([3]; F294A-1 (run 1)): 0.7189; Bottom ([3]; F294A-2 (run 2)): -2.342; Bottom ([3]; F294A-3 (run 3)): -0.7874; EC50 [4]: 2.6 nM; Emax ([4]; HEK293, Suppl. Tables 4/5, SSTR3-WT, n=5): 36.7 ± 11.7%; Fold of WT ([4]; Suppl. Tables 4/5, SSTR3-WT): 1; EC50 ([4]; Suppl. Tables 4/5, SSTR3-WT, n=5, read-out: EC50): 63.8 ± 1.33 nM; Bottom [4, 8]: 7.289; LogEC50 [4, 8]: -5.765; Span [4, 8]: 89.66; Top [4, 8]: 96.95; Bottom [4, 9]: -24.33; LogEC50 [4, 9]: -7.352; Span [4, 9]: 140.2; Top [4, 9]: 115.9; EC50 ([4]; best-fit, SSTR3 WT-1 (H192T set), read-out: EC50): 44.5 nM; Bottom [4, 10]: 2.721; LogEC50 [4, 10]: -7.195; Span [4, 10]: 103.1; Top [4, 10]: 105.9; EC50 ([4]; best-fit, SSTR3 WT-1 (M193I set), read-out: EC50): 63.8 nM; Bottom [4, 11]: 2.721; LogEC50 [4, 11]: -7.195; Span [4, 11]: 103.1; Top [4, 11]: 105.9; EC50 ([4]; best-fit, SSTR3 WT-1 (N101V set), read-out: EC50): 63.8 nM; Bottom [4, 12]: 2.721; LogEC50 [4, 12]: -7.195; Span [4, 12]: 103.1; Top [4, 12]: 105.9; EC50 ([4]; best-fit, SSTR3 WT-2 (F296D set), read-out: EC50): 63.8 nM; Bottom [4, 13]: -19.9; LogEC50 [4, 13]: -7.557; Span [4, 13]: 137.3; Top [4, 13]: 117.4; EC50 ([4]; best-fit, SSTR3 WT-2 (H192T set), read-out: EC50): 27.7 nM; Bottom [4, 14]: -0.9229; LogEC50 [4, 14]: -7.198; Span [4, 14]: 106.7; Top [4, 14]: 105.8; EC50 ([4]; best-fit, SSTR3 WT-2 (M193I set), read-out: EC50): 63.4 nM; Bottom [4, 15]: -0.442; LogEC50 [4, 15]: -8.585; Span [4, 15]: 97.55; Top [4, 15]: 97.11; Bottom [4, 16]: -0.9229; LogEC50 [4, 16]: -7.198; Span [4, 16]: 106.7; Top [4, 16]: 105.8; EC50 ([4]; best-fit, SSTR3 WT-3 (F296D set), read-out: EC50): 63.4 nM; Bottom [4, 17]: -0.442; LogEC50 [4, 17]: -8.585; Span [4, 17]: 97.55; Top [4, 17]: 97.11; Bottom [4, 18]: -0.9229; LogEC50 [4, 18]: -7.198; Span [4, 18]: 106.7; Top [4, 18]: 105.8; EC50 ([4]; best-fit, SSTR3 WT-3 (N101V set), read-out: EC50): 63.4 nM; Emax [5]: 81 ± 1.71%; Fold of WT ([6]; Bystander BRET EC50, SSTR2-WT): 1.00; EC50 ([6]; EC50, Bystander BRET, SSTR2-WT, n=6): 122 ± 1.31 nM; EC50 ([6]; EC50, best-fit value, WT-1 (F265A, I284A, K291A blocks)): 40.4 nM; EC50 ([6]; EC50, best-fit value, WT-1 (N276A, F294A blocks)): 250 nM; EC50 ([6]; EC50, best-fit value, WT-2 (F265A, I284A, K291A blocks)): 131 nM; EC50 ([6]; EC50, best-fit value, WT-2 of N276A block = WT-3 of F294A block): 219 nM; EC50 ([6]; EC50, best-fit value, WT-3 (F265A, I284A, K291A blocks)): 58.5 nM; EC50 ([6]; EC50, best-fit value, WT-3 of N276A block = WT-2 of F294A block): 202 nM; Emax ([6]; HEK293): 100%; Bottom (best-fit) ([6]; WT-1 (run 1)): 1.413; LogEC50 (best-fit) ([6]; WT-1 (run 1)): -7.394; Span (best-fit) ([6]; WT-1 (run 1)): 100; Top (best-fit) ([6]; WT-1 (run 1)): 101.4; Bottom (best-fit) ([6]; WT-2 (run 2)): -7.096; LogEC50 (best-fit) ([6]; WT-2 (run 2)): -6.882; Span (best-fit) ([6]; WT-2 (run 2)): 113.5; Top (best-fit) ([6]; WT-2 (run 2)): 106.4; Bottom (best-fit) ([6]; WT-3 (run 3)): -1.006; LogEC50 (best-fit) ([6]; WT-3 (run 3)): -7.233; Span (best-fit) ([6]; WT-3 (run 3)): 104.3; Top (best-fit) ([6]; WT-3 (run 3)): 103.3; Bottom [6, 19]: 1.413; LogEC50 [6, 19]: -7.394; Span [6, 19]: 100; Top [6, 19]: 101.4; Bottom ([6]; WT-1 (N276A, F294A blocks)): -1.996; LogEC50 ([6]; WT-1 (N276A, F294A blocks)): -6.603; Span ([6]; WT-1 (N276A, F294A blocks)): 108.2; Top ([6]; WT-1 (N276A, F294A blocks)): 106.2; Bottom [6, 20]: -7.096; LogEC50 [6, 20]: -6.882; Span [6, 20]: 113.5; Top [6, 20]: 106.4; Bottom [6, 21]: -1.129; LogEC50 [6, 21]: -6.66; Span [6, 21]: 107.2; Top [6, 21]: 106.1; Bottom [6, 22]: -1.006; LogEC50 [6, 22]: -7.233; Span [6, 22]: 104.3; Top [6, 22]: 103.3; Bottom [6, 23]: -1.982; LogEC50 [6, 23]: -6.696; Span [6, 23]: 107.7; Top [6, 23]: 105.7; Internalization of mutants [7]: slightly change in the internalization
